Calls of active or inactive are those of the source. For most assays here, no stated cut-off is given here; in the data, actives have a measured EC50 and inactives only a lower limit.
Legend:
[1] = viability of uninfected HEp-2 cells – cell-based, HTS, cytotoxicity control for RSV inhibitor project, dose response (AID 2410); type: functional; conditions: human respiratory syncytial virus
[2] = Luminescence Cell-Based Dose Confirmation HTS to Identify Activators of 5'UTR Stem-Loop Driven Alpha-Synuclein mRNA Translation in H4 Neuroglioblastoma Cells. [Related pubchem assays: 1829 (Project Summary), 1814 (Primary HTS)]; type: functional
H4 = test: Luminescence Cell-Based Dose Response HTS to Identify Activators of 5'UTR Stem-Loop Driven Prion Protein mRNA Translation in H4 Neuroglioblastoma Cells. [Related pubchem assays: 1829 (Project Summary), 1814 (Primary HTS)]; type: functional; conditions: Homo sapiens
[3] = Luminescence Cell-Based Dose Response HTS to Identify Activators of Luciferase Translation or Activity in H4 […] Cells. [Related pubchem assays: 1829 (Project Summary), 1814 (Primary HTS)]; type: functional
[4] = molecular target: T1, Heat shock factor protein 1 (Mus musculus, UniProt P38532); test: enhancement of HSF1-driven luciferase signal – cell-based, NIH3T3, luminescence, dose retest, confirmation (AID 435004); type: functional;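 further: stress induced by proteasome inhibitor MG132 added 30 min after compound; luciferase reporter driven by HSF1 response element in NIH3T3 cells; actives raise luminescence as potentiators of the MG132 stress response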
T1 sequence (P38532 whole entry): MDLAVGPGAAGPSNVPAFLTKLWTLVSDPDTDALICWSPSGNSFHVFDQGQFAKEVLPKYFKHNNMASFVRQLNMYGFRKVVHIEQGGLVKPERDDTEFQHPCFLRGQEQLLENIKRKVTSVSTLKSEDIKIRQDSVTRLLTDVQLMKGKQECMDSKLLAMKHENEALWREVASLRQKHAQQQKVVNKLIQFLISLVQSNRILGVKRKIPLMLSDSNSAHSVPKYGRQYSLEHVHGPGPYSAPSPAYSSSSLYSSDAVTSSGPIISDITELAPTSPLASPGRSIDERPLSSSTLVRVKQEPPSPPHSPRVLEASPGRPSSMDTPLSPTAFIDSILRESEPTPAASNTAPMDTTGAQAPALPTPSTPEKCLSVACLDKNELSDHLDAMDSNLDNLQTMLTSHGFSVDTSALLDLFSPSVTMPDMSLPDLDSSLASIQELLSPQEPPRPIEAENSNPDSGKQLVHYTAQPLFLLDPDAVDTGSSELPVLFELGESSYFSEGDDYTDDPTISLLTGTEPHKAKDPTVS

[5] = Trypanosoma cruzi growth suppression in host cells – NIH3T3 host cells, beta-gal luminescence, confirmation (AID 2044); type: functional, cell-based;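 further: intracellular parasites grown in NIH/3T3 mouse fibroblasts as host cells; luminescent beta-galactosidase reporter signal from transgenic T. cruzi replicating inside host cells; inhibitors lower the luminescence signal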
[6] = NIH3T3 cell viability loss – ATP luminescence, mouse fibroblasts, counter-screen, dose response (AID 2010); type: functional, cell-based;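 further: cells exposed to compound for about 90 hours before reading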
[7] = molecular target: T2, Replicative DNA helicase DnaB (Mycobacterium tuberculosis, UniProt P9WMR3); test: DnaB intein splicing inhibitors, dose response, biochemical, cell-free fluorescence (AID 449749); type: functional
T2 sequence (P9WMR3 whole entry): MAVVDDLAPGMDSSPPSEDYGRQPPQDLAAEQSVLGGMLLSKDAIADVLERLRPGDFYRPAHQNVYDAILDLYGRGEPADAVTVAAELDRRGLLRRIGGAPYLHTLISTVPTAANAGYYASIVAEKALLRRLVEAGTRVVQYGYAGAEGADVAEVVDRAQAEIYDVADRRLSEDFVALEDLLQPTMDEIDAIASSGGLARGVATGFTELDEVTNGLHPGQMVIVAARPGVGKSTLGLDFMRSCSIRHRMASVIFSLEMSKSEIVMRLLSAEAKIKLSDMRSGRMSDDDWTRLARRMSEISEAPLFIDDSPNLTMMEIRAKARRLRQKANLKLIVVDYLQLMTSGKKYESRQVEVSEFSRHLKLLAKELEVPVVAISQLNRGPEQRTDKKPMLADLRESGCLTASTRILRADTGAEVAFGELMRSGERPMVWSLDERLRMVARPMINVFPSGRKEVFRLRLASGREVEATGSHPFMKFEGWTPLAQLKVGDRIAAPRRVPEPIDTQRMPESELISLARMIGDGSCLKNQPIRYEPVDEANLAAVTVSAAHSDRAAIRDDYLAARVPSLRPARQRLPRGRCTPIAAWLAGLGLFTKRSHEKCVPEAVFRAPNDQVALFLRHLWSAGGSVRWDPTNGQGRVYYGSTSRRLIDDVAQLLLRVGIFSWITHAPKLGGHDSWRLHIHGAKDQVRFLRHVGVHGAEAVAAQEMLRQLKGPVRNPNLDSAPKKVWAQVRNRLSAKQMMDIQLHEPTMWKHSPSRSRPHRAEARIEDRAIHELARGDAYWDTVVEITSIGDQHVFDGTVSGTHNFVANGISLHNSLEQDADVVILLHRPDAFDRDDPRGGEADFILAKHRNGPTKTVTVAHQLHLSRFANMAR

Protein RecA = molecular target: T3, Protein RecA (Mycobacterium tuberculosis, UniProt P9WHJ3); test: Fluorescence Cell-Free Homogeneous Dose Retest to Identify Inhibitors of RecA-Intein Splicing Activity. [Related pubchem assays (depositor defined):AID2097, AID2223, AID489010, AID492950]; type: functional
T3 sequence (P9WHJ3 whole entry): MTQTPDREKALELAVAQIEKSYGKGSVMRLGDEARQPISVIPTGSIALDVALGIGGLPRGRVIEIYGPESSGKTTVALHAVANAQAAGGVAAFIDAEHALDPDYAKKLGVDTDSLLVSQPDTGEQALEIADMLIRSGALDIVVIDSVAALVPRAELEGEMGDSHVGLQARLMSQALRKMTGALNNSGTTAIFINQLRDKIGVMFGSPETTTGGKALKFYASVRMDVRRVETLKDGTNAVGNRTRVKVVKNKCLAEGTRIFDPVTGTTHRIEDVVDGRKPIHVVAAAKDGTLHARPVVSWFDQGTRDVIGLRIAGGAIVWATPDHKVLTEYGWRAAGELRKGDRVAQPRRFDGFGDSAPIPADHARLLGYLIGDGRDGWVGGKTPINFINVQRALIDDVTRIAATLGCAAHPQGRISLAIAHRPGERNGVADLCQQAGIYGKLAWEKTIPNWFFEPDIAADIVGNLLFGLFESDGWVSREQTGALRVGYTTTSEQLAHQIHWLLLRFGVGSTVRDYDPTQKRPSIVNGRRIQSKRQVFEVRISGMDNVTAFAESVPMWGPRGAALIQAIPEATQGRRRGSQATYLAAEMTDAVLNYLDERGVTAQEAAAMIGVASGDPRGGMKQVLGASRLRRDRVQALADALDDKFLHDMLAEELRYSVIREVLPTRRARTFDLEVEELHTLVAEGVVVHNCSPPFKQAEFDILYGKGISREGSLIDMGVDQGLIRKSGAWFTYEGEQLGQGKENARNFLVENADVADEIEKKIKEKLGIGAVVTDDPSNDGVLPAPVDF

[8] = test system: Streptococcus sp. 'group A'; test: Streptococcus pyogenes SK(-)GAS viability under kanamycin – luminescence, BacTiterGlo, confirmation, counter-screen for streptokinase expression inhibitor project, dose response (AID 1900); type: functional, organism-based
Streptokinase A = molecular target: T4, Streptokinase A (Streptococcus pyogenes serotype M1, UniProt P10520); test: viability-normalized secreted streptokinase activity reduction – plasminogen activation absorbance, OD405, dose response (AID 1914); type: functional, Streptococcus pyogenes M1 GAS;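 further: secreted streptokinase activity via plasminogen activation per viability signal from cell pellet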
T4 sequence (P10520 whole entry): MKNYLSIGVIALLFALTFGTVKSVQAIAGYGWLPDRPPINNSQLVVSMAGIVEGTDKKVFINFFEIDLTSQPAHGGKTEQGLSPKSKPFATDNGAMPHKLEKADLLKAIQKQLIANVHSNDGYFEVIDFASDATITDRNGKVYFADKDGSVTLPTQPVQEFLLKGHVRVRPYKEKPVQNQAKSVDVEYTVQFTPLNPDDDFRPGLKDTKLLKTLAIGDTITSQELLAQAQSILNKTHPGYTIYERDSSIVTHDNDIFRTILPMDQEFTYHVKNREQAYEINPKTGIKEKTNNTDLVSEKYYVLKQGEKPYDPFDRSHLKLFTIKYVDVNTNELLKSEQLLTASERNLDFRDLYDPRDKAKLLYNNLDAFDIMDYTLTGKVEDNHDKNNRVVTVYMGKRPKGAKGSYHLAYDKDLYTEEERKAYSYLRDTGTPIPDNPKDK

Streptococcus = test: GAS UMAA2166 growth inhibition – luminescence, BacTiterGlo, counter-screen for streptokinase expression inhibitor project, dose response (AID 1915); type: functional, organism-based;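 further: potency for reduction of bacterial viability or growth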
INS1 = test: INS-1E survival protection against cytokine death – cell-based, luminescence, retest, dose response (AID 449756); type: functional; conditions: Rattus norvegicus, INS1;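 further: cell death triggered by IL-1 beta plus TNF-alpha plus IFN-gamma mixture; protective hits raise ATP signal compared with cytokine alone wells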

SMILES | EC50 [2] | EC50 (H4) | EC50 [3] | AC50 [7] | EC50 (Protein RecA) | also measured
Cc1ccccc1C1c2[nH]c3ccccc3c2CCN1C(=O)c1ccc(=O)n(C)n1 (stereo unspecified) |  |  |  |  |  | CC50 [1]: 20.4 µM (active)
COc1ccccc1NS(=O)(=O)c1ccc(-c2cc(C)no2)s1 | > 120 µM (not active) | > 120 µM (not active) | > 30 µM (not active) |  |  | 
NC(=O)c1sc2nc(N3CCOCC3)c3c(c2c1N)CCCC3 |  |  |  |  |  | CC50 [1]: > 50 µM (active)
CCOC(=O)Nc1ccc2c(C)cc(=O)oc2c1 | 13 µM (active) | 12.9 µM (active) | 30.9 µM (active) |  |  | 
c1ccc(-c2cc3n(c2)CCc2ccccc2-3)cc1 | 10.7 µM (active) | 22.7 µM (active) | 15.9 µM (active) |  |  | 
CCN(CC)C(=O)CSc1ncnc2sc(C)c(C)c12 |  |  |  |  |  | EC50 [4]: > 260 µM (inactive)
COc1ccc(S(=O)(=O)N2CCN(c3nc(-c4cccnc4)nc4ccccc34)CC2)cc1 |  |  |  |  |  | CC50 [1]: 30.4 µM (active)
Nn1c(SCc2ccccc2F)nnc1-c1cccnc1 | 64.2 µM (active) | 33.4 µM (active) | 36.8 µM (active) |  |  | 
Cc1noc(C)c1COC(=O)c1cc2ccccc2cc1O |  |  |  |  |  | CC50 [1]: 43.1 µM (active)
CC1CCc2[nH]c3ccc(C(=O)N(C)CC(=O)Nc4ccccc4Br)cc3c2C1 (stereo unspecified) |  |  |  |  |  | CC50 [1]: 22 µM (active)
CN1CCc2nc(SC(C(=O)O)c3ccccc3)c(C#N)c(-c3cccs3)c2C1 (stereo unspecified) |  |  |  | > 380 µM (inactive) | 12.3 µM (active) | EC50 [5]: 1.2 µM (active); EC50 [6]: > 30 µM (not active)
COc1ccc(OCc2cc(C(=O)N(C)Cc3cc(C4CC4)[nH]n3)no2)c(Cl)c1 | 28.2 µM (active) | 37.8 µM (active) | 69.5 µM (active) |  |  | 
O=C(NCCC1=CCCCC1)c1cnccn1 | 8.37 µM (active) | 11 µM (active) | 4.95 µM (active) |  |  | 
O=C(CCc1nnc2n(Cc3ccc(F)cc3)c(=O)c3ccccc3n12)N1CCN(c2ccccn2)CC1 |  |  |  |  |  | CC50 [1]: 37.4 µM (active)
CC(=O)Cn1ncc(N2CCCCC2)c(Cl)c1=O | 24.6 µM (active) | 23.5 µM (active) | 11.5 µM (active) |  |  | 
CCOC(=O)c1c(C)n(C)c2ccc(OCC(O)Cn3c(C)nc4ccccc43)cc12 (stereo unspecified) |  |  |  |  |  | CC50 [1]: 19.4 µM (active)

SMILES | EC50 [2] | EC50 (H4) | EC50 [3] | AC50 [7] | EC50 (Protein RecA) | also measured
Cc1ccccc1C1=NC(c2ccc(F)cc2F)ON1 (stereo unspecified) | 33.6 µM (active) | 33.8 µM (active) | 8.1 µM (active) |  |  | 
CN1CCN(C2=C(Cl)C(=O)N(C3CCCCC3)C2=O)CC1 | 8.46 µM (active) | > 120 µM (not active) | 19.8 µM (active) |  |  | 
COc1cccc(-c2cc(O)[nH]n2)c1 |  |  |  | 2.51 µM (active) | 0.757 µM (active) | 
Cc1cccc(C(=O)NC2CCCCCCC2)c1 | 29.8 µM (active) | > 120 µM (not active) | 11.9 µM (active) |  |  | 
CC1(C)CC(CCNC(=O)CCl)(c2ccccc2)CCO1 (stereo unspecified) |  |  |  | 179 µM (active) | 14.5 µM (active) | 
Cc1nc(OCc2ccccc2)c2sc3nc4c(cc3c2n1)COC(C)(C)C4 | 9.71 µM (active) | > 120 µM (not active) | 7.5 µM (active) |  |  | 
COc1ccc(Br)cc1[C@H]1[C@@H]2C=CCC[C@@]2(C)C(=O)N1Cc1ccccc1 |  |  |  | > 380 µM (inactive) | 26.7 µM (active) | EC50 [8]: 7.12 µM (active); EC50 (Streptokinase A): 37.6 µM (active); EC50 (Streptococcus): 11.1 µM (active)
Cc1nc2cc(NC(=O)N3CCC(c4ccccc4)C3)ccc2n1C (stereo unspecified) | 46.9 µM (active) | 27.4 µM (active) | 17.7 µM (active) |  |  | 
O=C(NNC(=S)Nc1ccccc1)c1cccs1 | 11.2 µM (active) | 75.4 µM (active) | 12.9 µM (active) |  |  | 
Oc1c2c(nn1-c1ccccc1)CCSC2 |  |  |  | 12 µM (active) | 13.7 µM (active) | 
Cc1n[nH]c2c1C(c1ccsc1)C(C#N)=C(N)O2 (stereo unspecified) |  |  |  | 11 µM (active) | 4.1 µM (active) | 
CC(C)(C)c1[nH]nc2c1C(c1ccco1)C(C#N)=C(N)O2 (stereo unspecified) |  |  |  | 3.88 µM (active) | 1.21 µM (active) | 
CC1Nc2ncnc(N3CCc4ccccc4C3)c2N(Cc2ccc(Cl)cc2)C1=O (stereo unspecified) |  |  |  | > 380 µM (inactive) | 30.9 µM (active) | 
Cc1ccc(/C=N/N2CCN(Cc3ccccc3)CC2)s1 | 21 µM (active) | > 120 µM (not active) | 11.9 µM (active) |  |  | 
N#Cc1nc(N)nc(N(c2ccccc2)c2ccccc2)n1 |  |  |  | 39.8 µM (active) | 66.6 µM (active) | 
CC1=C(CC(=O)c2ccc(Cl)cc2)C(=O)c2ccccc2C1=O |  |  |  | 7.84 µM (active) | 1.24 µM (active) | AC50 (INS1): 8.26 µM (active)

From ChEMBL document CHEMBL1201862, “PubChem BioAssay data set” (2004)
